{"source": "patent US11638709B2", "about": "“Rucaparib, Talazoparib, Veliparib, Olaparib and AZD 2461 for treating impaired skin wound healing” (AKRIBES BIOMEDICAL GMBH, priority 2017, dated 2023)", "key": {"[1]": {"system": "macrophages in co-culture with fibroblasts", "assay": "Fibroblast-macrophage coculture with wound exudate (FACS, ELISA)", "assay_type": "cell-based, human", "conditions": "wound exudate #78; for percentage of live cells in the FACS CD45-gate (macrophages): FIG. 17 A; for macrophage M2 marker CD206: FIG. 17 B; for proinflammatory cytokine IL-1α induced by wound exudate: FIG. 17 C", "method": "CD14^+ monocytes, isolated from PBMC of healthy donors by magnetic bead separation were incubated either alone or in the presence of primary human dermal fibroblasts (CellNTec) or fibroblast-derived matrices (FDM). FDM had been generated from primary human dermal fibroblasts by a 3-week incubation with the growth supplements vitamin C or insulin and EGF (vitamin C: 2-phospho-L-ascorbic acid trisodium salt, 100 μg/ml; human EGF, 5 ng/ml; human insulin, 5 μg/ml). Alternatively, fibroblast monolayer cultures can be used as well. After 4 days to a week to allow for macrophage differentiation in the presence or absence of M-CSF (25 ng/ml), the cultures were stimulated overnight with graded concentrations of test compounds in the absence or presence of various dilutions of sterile-filtered WE. IFN-g (50 ng/ml), LPS (100 ng/ml) and IL-4 (25 ng/ml) or combinations thereof served as controls for M1 and M2 macrophage induction. For negative control samples, medium was added instead of specific stimuli. WE were added to the culture medium for overnight stimulation at dilutions ranging from 1:25 to 1:100.\nSupernatants were harvested and frozen for cytokine determination by ELISA, and cells were harvested and subjected to FACS analysis, gating on the monocyte population. Geometric means or mean fluorescence intensities (MFI) were used to quantify surface marker expression.\nELISA: CXCL10 and IL-23p19 for M1 macrophages and CCL22 and CCL18 as M2 macrophage markers, IL-1alpha, IL-1beta and TNF-alpha as pro-inflammatory markers indicative of an M1 phenotype.\nCells were harvested and resuspended in FACS buffer (PBS containing 2% FCS). Unspecific antibody binding was prevented by incubation with human Trustain FCR blocking solution (Biolegend, #422302) on ice for 10 minutes. The following fluorchrome-conjugated antibodies from eBioscience (now ThermoFisher Scientific) were used to detect specific surface markers by staining on ice for 30 minutes: CD38-PerCPeFluor710 (#46-0388-42), CD197-APC (#17-1979-42), CD206-AF488 (#53-2069-42), CD209-PerCP Cy5.5 (#45-2099-42). Co-staining with CD45 eFluor (#506 69-0459-42) was used to distinguish macrophages from primary human fibroblasts when analyzed from co-cultures. After washing cells with FACS buffer, they were fixed with 1% paraformaldehyde in PBS and stored at 4° C. in the dark until data were acquired on a Gallios flow cytometer from Beckman Coulter and analyzed with the Kaluza analysis software 1.3."}, "[2]": {"system": "alpha-smooth muscle actin (α-SMA) in human dermal fibroblasts", "assay": "Immunolocalization of alpha-smooth muscle actin in 2D HDF culture", "assay_type": "cell-based", "conditions": "FIG. 16; wound exudates #91 and #55; talazoparib 0.1 μM", "method": "Primary human dermal fibroblasts (HDF) were purchased from CELLnTEC, Bern. They were routinely grown in Dulbecco's modified Eagle's medium (DMEM) containing 10% FCS, 2 mM glutamine, and 100 U/ml penicillin/100 μg/ml streptomycin. Media, antibiotics, and glutamine were bought from Lonza. The cells were used at passage 5-15. Cells were trypsinized and seeded at 5000 cells/well in 200 μl into the inner wells of 96-well plates. The outer wells were loaded with sterile water. The cells were allowed to adhere overnight and then incubated for 72 hours at 37° C. under the following conditions: graded compound concentrations or 20 ng/ml PDGF-BB (Tonbo Biosciences) in the absence or presence of different dilutions of sterile-filtered WE in medium. For control samples, 200 μl medium was added instead of specific stimuli. Alternatively, the cells were seeded into 384-well plates at 2500 cells/well directly together with test compounds or growth factors and WE or medium in a total volume of […].\nAfter fixation with paraformaldehyde, the cells were incubated for 1 hour at room temperature with a monoclonal mouse-anti-human antibody against alpha-smooth muscle actin (α-SMA) from e-Bioscience, washed 3 times with PBS and developed with an Alexa Fluor-labelled donkey-anti-mouse IgG (Molecular Probes). […]"}}, "data": [{"smiles": "C[C@]1(c2nc3c(C(N)=O)cccc3[nH]2)CCCN1", "note": "[Veliparib, 2-((2R)-2-methylpyrrolidin-2-yl)-1H-benzimidazole-4-carboxamide]", "values": [{"measurement": "percentage of live cells in the FACS CD45-gate (macrophages)", "setting": "[1]", "value": "dose-dependently increased"}, {"measurement": "macrophage M2 marker CD206", "setting": "[1]", "value": "dose-dependently increased"}, {"measurement": "proinflammatory cytokine IL-1α induced by wound exudate", "setting": "[1]", "value": "reduced"}]}, {"smiles": "Cn1ncnc1[C@H]1c2n[nH]c(=O)c3cc(F)cc(c23)N[C@@H]1c1ccc(F)cc1", "note": "[Talazoparib]", "values": [{"measurement": "percentage of live cells in the FACS CD45-gate (macrophages)", "setting": "[1]", "value": "dose-dependently increased"}, {"measurement": "macrophage M2 marker CD206", "setting": "[1]", "value": "dose-dependently increased"}, {"measurement": "proinflammatory cytokine IL-1α induced by wound exudate", "setting": "[1]", "value": "reduced"}, {"measurement": "expression of α-SMA", "setting": "[2]", "value": "able to induce expression of α-SMA"}]}]}
